Here are results for one compound from patent publication CN109329202A, “一种有效抑制n-羟乙酰神经氨酸合成的方法” (Guizhou University, priority 2018, dated 2019).

The structures appear in SMILES notation.

The experiment concerns Neu5Gc synthesis [Neu5Gc的合成]. Description: Neu5Gc degradation in rat muscle, liver and kidney after 30 d oral gavage (HPLC after DMB derivatisation). It is filed as in vivo. The settings on record: male SD rats, oral gavage 200 mg/(kg.d) in 0.5% sodium carboxymethylcellulose, vs blank control (HPLC peak area).

Turning to `O=c1c(O)c(-c2ccc(O)cc2)oc2cc(O)cc(O)c12` [山奈酚], the “Neu5Gc degradation rate, kidney sample” value (kidney) turned out to be 17.55%. Besides, the “Neu5Gc degradation rate, liver sample” value (liver) worked out at 6.315%. Moreover, the “Neu5Gc degradation rate, meat sample” value (thigh muscle) was found to be 13.356%.
